# Test results reported in US20160298082A1, “METHOD FOR OBTAINING IMMUNO-STIMULATORY DENDRITIC CELLS” (TRANSIMMUNE AG, priority 2013, published 2016).
# Entries after “also recorded” stand apart in the source; their conditions may differ. No end group written: not given here.
# Columns and labels:
# [1] = test system: MoDC; experiment: IL-10 and IL-12p70 ELISA in siRNA experiments; format: cell-based, human; conditions: siRNA experiment, not transfected
# Procedure: Silencer select pre-designed and validated GILZ siRNA (Invitrogen), with off-target prediction algorithms, was used to knockdown GILZ expression. Mo-DC were transfected using Lipofectamine RNAiMAX Reagent (Invitrogen). RNAi duplex and lipofectamine reagent were incubated together for 20 min, then added to MoDC cultures and incubated for 2 hr at 37° C. and 5% CO2. Transfected MoDC were treated in an identical fashion as described for the MoDC/lymphocyte co-cultures. MoDC were also transfected with scramble siRNA.
# (§1) Culture supernatants were analyzed in a multiplex format utilizing magnetic beads to IL-6, IL-8, IL-10, IL-12p70, IFN-γ, TNF-α, RANTES, MCP-1, and MIP-1β (BioRad Laboratories). For siRNA experiments, supernatants were analyzed with enzyme-linked immunosorbent assay (ELISA) kits for IL-10 (R&D Systems) and IL-12p70 (Enzo Life Science). All samples and standards were run in duplicate and analyzed using the LUMINEX 200 (LUMINEX), or the BioTek EL800 (BioTek).
# [2] = test system: MoDC; experiment: Cytokine quantification in MoDC supernatants after LPS stimulation (magnetic bead multiplex); format: cell-based, human; conditions: after LPS; untreated MoDC 6.7
# Procedure: Lymphocytes were treated with 8-MOP (100 ng/mL) and UVA (1 J/cm^2), washed with PBS, and co-cultured in complete media at 37° C. and 5% CO2 with either PUVA-treated or untreated-MoDC in a ratio of 5 or 10 lymphocytes to 1 MoDC. MoDC treated for 24 hr with 100 nM dexamethasone (Sigma) served as the positive control group. After 24 hr, cells were harvested and MoDC were re-purified. […] CD11c^+ MoDC were re-plated at 0.5-1.0×10^6 cells/mL in complete media and stimulated with 100 ng/mL LPS (Sigma). 24 hr after LPS stimulation, cells were harvested for RNA isolation and immunophenotyping, and supernatants were collected for cytokine quantification.
# as §1
# [3] = test system: GILZ; experiment: GILZ mRNA expression in CD11c+ MoDC (quantitative real-time PCR); format: cell-based, human; conditions: relative to untreated MoDC cultured alone; 24 hr (FIG. 13B); dex 100 nM; PUVA 100 ng/mL, 1 J/cm^2
# Procedure: Monocytes were cultured at a density of 5×10^6 cells/mL in 6- and 12-well polystyrene tissue culture plates at 37° C. and 5% CO2 in RPMI-1640 (Gibco) supplemented with heat-inactivated 15% AB serum (Gemini) and 1% penicillin/streptomycin (now referred to as complete media). 800 IU/mL recombinant human GM-CSF (R&D Systems) and 1000 IU/mL recombinant human IL-4 (R&D Systems) were added to cultures for 36 hr to induce monocyte to DC differentiation as described.
# Non-adherent cells (purity: 66.0±4.5% CD3^+) removed during plastic adherence will now be generally referred to as lymphocytes. Lymphocytes were treated with 8-MOP (100 ng/mL) and UVA (1 J/cm^2), washed with PBS, and co-cultured in complete media at 37° C. and 5% CO2 with either PUVA-treated or untreated-MoDC in a ratio of 5 or 10 lymphocytes to 1 MoDC. […] 24 hr after LPS stimulation, cells were harvested for RNA isolation and immunophenotyping, and supernatants were collected for cytokine quantification.
# RNA was isolated from CD11c^+ MoDC using QIAShredder columns (QIAGEN) and the RNeasy Mini Kit (QIAGEN) with on-column Dnase I treatment (QIAGEN). RNA yield and purity were assessed using a NanoDrop ND-1000 spectrophotometer. cDNA was obtained using the High Capacity cDNA Reverse Transcription Kit (Applied Biosystems) in a 96-well thermocycler (MJ Research PTC-200). […]
# [4] = test system: platelets; experiment: Platelet adhesion to protein-coated Vena8 channels under flow; format: cell-based, human; conditions: for Platelet adhesion to fibrinogen-coated plates after pre-incubation of platelets with peptide / Platelet adhesion to fibronectin-coated plates after pre-incubation of platelets with peptide: PRP pre-incubated with 2 mM peptide 20 min
# Procedure: Platelet adhesion experiments were performed using the Vena8 flow chamber described above. Fibrinogen and fibronectin (Sigma) were dissolved in PBS to a final concentration of 200 mcg/ml. Channels of the Vena8 chips were incubated at room temperature in a humidified chamber for 2 hours with the protein solution, autologous plasma, or PBS alone. The channels were washed with 5× the volume RPMI. Platelet-rich-plasma was then perfused through the protein-coated channel at the indicated shear-stress, held constant. For each channel, still images were acquired exactly 90 seconds into the experiment at 4 pre-defined low power fields located along the flow path (fields were centered at 2500, 7500, 12500, and 17500 microns from the start point of infusion).
# Some experiments involved pre-treating platelet-rich-plasma with protein fragments prior to infusion through the channels. Small RGD peptides, containing the amino-acid sequence Arg-Gly-Asp-Ser; DRG peptides, contain the amino-acid sequence Ser-Asp-Gly-Arg; or fragment 400-411 of fibrinogen, containing the amino-acid sequence His-His-Leu-Gly-Gly-Ala-Lys-Gln-Ala-Gly-Asp-Val, were incubated at a concentration of 2 mM with PRP for 20 minutes at room temperature. The PRP was then perfused through the channels as previously described.
# [5] = test system: monocyte-platelet interactions; experiment: Monocyte-platelet interactions on platelet-coated plates under flow (receptor-ligand studies); format: cell-based, human
# Procedure: Platelet-coated Vena8 channels were pre-treated with either 40 μg/ml anti-P-selectin (R&D Systems) or 40 μg/ml of an isotype control for 30 minutes at room temperature, then washed with 5× the volume RPMI. Mononuclear cell suspensions were pre-treated with either RGD or DGR peptides at a concentration of 2.5 mM. Video samples lasting 400 frames (26.3 seconds) were recorded 60 seconds after commencement of flow using a lower power field of view spanning 400 microns and centered at 7500 microns from the flow start point.
# The monocyte-platelet interactions observed on video were divided into two categories: (1) short-acting, arbitrarily defined as contact occurring for less than 3 seconds (46 frames), and (2) long-acting, defined as contact longer than 3 seconds, including stable binding. Since it had been previously determined that the platelets in the ECP system were in an activated state, and that activated platelets express an array of proteins including P-selectin and RGD containing proteins (e.g. fibronectin, fibrinogen, and vitronectin), it was sought to determine the involvement, if any, of these proteins in either short or long-duration interactions. Plates were pre-coated with platelets, and four conditions tested: (1) platelets pre-treated with an irrelevant isotype control, and monocytes untreated (P+RGD+); (2) platelets pre-treated with an irrelevant isotype control, and monocytes pre-incubated with RGD peptides (P+RGD−); (3) platelets pre-treated with anti-P-selectin, and monocytes untreated (P−RGD+); (4) platelets pre-treated with anti-P-selectin, and monocytes pre-treated with RGD peptides (P−RGD−). It was assumed that pre-treating monocytes with RGD peptides should result in a decreased in the number of free RGD-recognizing receptors available to interact with RGD-containing proteins expressed by the platelets. […] As shown by FIG. 6, both short-acting and long-acting interactions were maximal when neither RGD nor P-selectin were blocked (P+RGD+); the level of interaction in all other conditions was expressed as a percentage of this maximum. […]
# [6] = target: β1 integrin (CD29), active (open) conformation, on monocytes (human) (UniProt P05556); experiment: flow cytometry of monocytes immediately after flow over platelet-coated plates, low number of platelet interactions
# β1 integrin (CD29), active (open) conformation, on monocytes (human), sequence (P05556 21-798): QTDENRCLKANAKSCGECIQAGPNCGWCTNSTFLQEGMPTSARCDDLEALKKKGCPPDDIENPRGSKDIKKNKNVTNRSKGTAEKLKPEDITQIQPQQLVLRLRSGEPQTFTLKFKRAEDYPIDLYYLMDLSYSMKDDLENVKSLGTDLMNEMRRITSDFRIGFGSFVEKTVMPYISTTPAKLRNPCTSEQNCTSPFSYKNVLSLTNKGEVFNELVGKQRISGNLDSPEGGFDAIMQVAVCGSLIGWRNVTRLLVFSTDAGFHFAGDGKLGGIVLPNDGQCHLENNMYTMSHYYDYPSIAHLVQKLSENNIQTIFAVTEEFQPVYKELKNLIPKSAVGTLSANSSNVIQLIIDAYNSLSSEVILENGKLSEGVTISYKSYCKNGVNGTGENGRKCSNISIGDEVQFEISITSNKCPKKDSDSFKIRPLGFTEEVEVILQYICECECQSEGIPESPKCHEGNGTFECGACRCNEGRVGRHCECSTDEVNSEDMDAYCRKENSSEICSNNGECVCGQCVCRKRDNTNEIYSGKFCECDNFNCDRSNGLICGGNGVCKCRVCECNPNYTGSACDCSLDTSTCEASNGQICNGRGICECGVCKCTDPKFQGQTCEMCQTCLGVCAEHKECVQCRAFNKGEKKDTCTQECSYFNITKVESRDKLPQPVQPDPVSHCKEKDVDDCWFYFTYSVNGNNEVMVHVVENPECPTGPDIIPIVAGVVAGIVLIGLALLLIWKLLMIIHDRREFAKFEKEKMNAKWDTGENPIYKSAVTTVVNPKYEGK
# [7] = target: β1 integrin (CD29), active (open) conformation, on monocytes (human) (UniProt P05556); experiment: flow cytometry of monocytes before passage through the plates
# [8] = target: β1 integrin (CD29), active (open) conformation, on monocytes (human) (UniProt P05556); experiment: flow cytometry of monocytes immediately after flow over platelet-coated plates, high number of platelet interactions
# [9] = target: RGD-recognizing receptors (on monocytes); experiment: cell-based or functional assay
# [10] = 0.5 dyne/cm2, relative to P+RGD+ maximum
molecule,measurement,setting,value
C[C@@H]1C[C@H]2[C@@H]3CCC4=CC(=O)C=C[C@]4(C)[C@@]3(F)[C@@H](O)C[C@]2(C)[C@@]1(O)C(=O)CO [dexamethasone],"IL-10 to IL-12p70 ratio, non-transfected MoDC cultured alone",[1],15.3
same,"Ratio of IL-10 to IL-12p70, MoDC cultured alone",[2],67.7
same,"GILZ up-regulation, MoDC cultured alone",[3],4.29 fold
"Arg-Gly-Asp-Ser (RGDS; printed: Arg-Gly-Asp-Ser) [RGD peptides, small RGD peptides]",Platelet adhesion to fibrinogen-coated plates after pre-incubation of platelets with peptide,[4],not significantly altered
same,Platelet adhesion to fibronectin-coated plates after pre-incubation of platelets with peptide,[4],decreased adhesion significantly
same,Long-duration (>3 s) monocyte-platelet interactions,[5]; [10],significant decrease
same,Short-duration (<3 s) monocyte-platelet interactions,[5]; [10],did not significantly alter; also recorded: no change
same,Decrease of long-duration monocyte-platelet interactions,[5]; monocytes pre-incubated with RGD peptides 2.5 mM (P+RGD−),44%
"HHLGGAKQAGDV [gamma fragments, gamma component of fibrinogen, amino acids 400-411]",Platelet adhesion to fibrinogen-coated plates after pre-incubation of platelets with peptide,[4],decreased
same,Platelet adhesion to fibrinogen-coated plates after pre-incubation of platelets with peptide,[4]; listed as peptide fragments corresponding to amino acids 400-411 of fibrinogen,significantly decreased
same,Platelet adhesion to fibronectin-coated plates after pre-incubation of platelets with peptide,[4],had no effect
anti-CD29 HUTS-21 (BD Biosciences) (antibody),percent of monocytes that bound the antibody (β1 in the active form),[6],9%
same,percent of monocytes that bound the antibody (baseline integrin activation),[7],< 10%
same,percent of monocytes that bound the antibody (β1 in the active form),[8],71%
fibrinogen,Platelet adhesion to plates coated with the protein,"[4]; coating 200 mcg/ml, wall shear stress 0.2 to 6.0 dyne/cm^2",highest concentrations of platelets adhered
"RGDS [RGD peptides, containing the amino-acid sequence Arg-Gly-Asp-Ser]",long-duration monocyte-platelet interactions under flow (video microscopy),[9],44%
